Tests used:
Assay type in all cases: in vivo
[1] = system: Amaranthus retoflexus (AMARE); test: Post-emergence herbicide glasshouse test; settings: post-emergence (sprayed after 8 days cultivation), 250 g/ha, evaluated after 13 days
Experimental: (§1) Seeds of a variety of test species are sown in standard soil in pots Amaranthus retoflexus (AMARE), Echinochloa crus-galli (ECHCG), Setaria faberi (SETFA)). After cultivation for one day (pre-emergence) or after 8 days cultivation (post-emergence) under controlled conditions in a glasshouse (at 24/16° C., day/night; 14 hours light; 65% humidity), the plants are sprayed with an aqueous spray solution derived from the formulation of the technical active ingredient in acetone/water (50:50) solution containing 0.5% Tween 20 (polyoxyethelyene sorbitan monolaurate, CAS RN 9005-64-5). Compounds are applied at 250 g/ha unless otherwise stated. The test plants are then grown in a glasshouse under controlled conditions in a glasshouse (at 24/16° C., day/night; 14 hours light; 65% humidity) and watered twice daily. After 13 days for pre and post-emergence, the test is evaluated for the percentage damage caused to the plant. The biological activities are shown in the following table on a five-point scale (5=81-100%; 4=61-80%; 3=41-60%; 2=21-40%; 1=0-20%).

[2] = system: Echinochloa crus-galli (ECHCG); test: Post-emergence herbicide glasshouse test; settings: post-emergence (sprayed after 8 days cultivation), 250 g/ha, evaluated after 13 days
Experimental: as §1

[3] = system: Setaria faberi (SETFA); test: Post-emergence herbicide glasshouse test; settings: post-emergence (sprayed after 8 days cultivation), 250 g/ha, evaluated after 13 days
Experimental: as §1

[4] = system: Amaranthus retoflexus (AMARE); test: Pre-emergence herbicide glasshouse test; settings: pre-emergence (sprayed after one day cultivation), 250 g/ha, evaluated after 13 days
Experimental: as §1

[5] = system: Echinochloa crus-galli (ECHCG); test: Pre-emergence herbicide glasshouse test; settings: pre-emergence (sprayed after one day cultivation), 250 g/ha, evaluated after 13 days
Experimental: as §1

[6] = system: Setaria faberi (SETFA); test: Pre-emergence herbicide glasshouse test; settings: pre-emergence (sprayed after one day cultivation), 250 g/ha, evaluated after 13 days
Experimental: as §1

Row | Structure (SMILES) | percentage damage caused to the plant, five-point scale, AMARE [1] | percentage damage caused to the plant, five-point scale, ECHCG [2] | percentage damage caused to the plant, five-point scale, SETFA [3] | percentage damage caused to the plant, five-point scale, AMARE [4] | percentage damage caused to the plant, five-point scale, ECHCG [5] | percentage damage caused to the plant, five-point scale, SETFA [6]
1 | CCCc1nc(CCCC(F)(F)F)c2c(Oc3ncc(Cl)cn3)cccc2n1 [Compound 1.033] | 4 (4=61-80%) | 3 (3=41-60%) | 3 (3=41-60%) | 2 (2=21-40%) | 5 (5=81-100%) | 5 (5=81-100%)
2 | FC(F)(F)CCCc1nc(C2CC2)nc2cccc(Oc3ncc(Cl)cn3)c12 [Compound 1.036] | 4 (4=61-80%) | 3 (3=41-60%) | 2 (2=21-40%) | 2 (2=21-40%) | 4 (4=61-80%) | 5 (5=81-100%)
3 | CC(C)c1nc(CCCC(F)(F)F)c2c(Oc3ncc(Cl)cn3)cccc2n1 [Compound 1.050, 5-(5-chloropyrimidin-2-yl)oxy-2-isopropyl-4-(4,4,4-trifluorobutyl)quinazoline] | 5 (5=81-100%) | 2 (2=21-40%) | 3 (3=41-60%) | 5 (5=81-100%) | 5 (5=81-100%) | 5 (5=81-100%)
4 | FC(F)(F)CCCc1ncnc2cccc(Oc3ncc(Cl)cn3)c12 [Compound 1.003, 5-(5-chloropyrimidin-2-yl)oxy-4-(4,4,4-trifluorobutyl)quinazoline] | 5 (5=81-100%) | 3 (3=41-60%) | 3 (3=41-60%) | 5 (5=81-100%) | 5 (5=81-100%) | 5 (5=81-100%)
5 | FC(F)(F)CCCc1nc(C2CCCC2)nc2cccc(Oc3ncc(Cl)cn3)c12 [Compound 1.031] | 4 (4=61-80%) | 3 (3=41-60%) | 3 (3=41-60%) | 1 (1=0-20%) | 5 (5=81-100%) | 5 (5=81-100%)
6 | FC(F)Oc1cnc(Oc2cccc3nc(C(F)(F)F)nc(CCCC(F)(F)F)c23)nc1 [Compound 1.027] | 4 (4=61-80%) | 1 (1=0-20%) | 1 (1=0-20%) | 3 (3=41-60%) | 2 (2=21-40%) | 0
7 | FC(F)(F)CCCc1nc(C(F)(F)F)nc2cccc(Oc3ncc(Br)cn3)c12 [Compound 1.025] | 4 (4=61-80%) | 5 (5=81-100%) | 4 (4=61-80%) | 4 (4=61-80%) | 5 (5=81-100%) | 5 (5=81-100%)
8 | COc1nc(CCCC(F)(F)F)c2c(Oc3ncc(Cl)cn3)cccc2n1 [Compound 1.014, 5-(5-chloropyrimidin-2-yl)oxy-2-methoxy-4-(4,4,4-trifluorobutyl)quinazoline] | 5 (5=81-100%) | 5 (5=81-100%) | 5 (5=81-100%) | 5 (5=81-100%) | 5 (5=81-100%) | 5 (5=81-100%)

— patent US20240032541A1, “HERBICIDAL COMPOUNDS” (SYNGENTA CROP PROTECTION AG, priority 2020, published 2024)
